In the OligoGym collection one finds target mRNA inhibition data, which are given here for 29 substances.

Values joined by “and” are separate entries in the source; they are usually repeats but may differ in a detail not shown here. Equal values may be shown once. HELM strings list units from the 5' end as sugar, base in round brackets, then linkage (d deoxyribose, r ribose, m 2'-O-methyl, p phosphodiester). Methylation of C is not given here. [moe] = 2'-O-(2-methoxyethyl) (MOE); [cEt] = constrained ethyl (cEt); [sp] = phosphorothioate linkage

The target in one data set is HBV. To be noted: ASO, HepG2, 0.0092593 µM.
For the substance “RNA1{[moe](A)[sp].[moe](A)[sp].[moe](G)[sp].[moe](C)[sp].d(G)[sp].d(A)[sp].d(A)[sp].d(G)[sp].d(T)[sp].d(G)[sp].d(C)[sp].d(A)[sp].d(C)[sp].[moe](A)[sp].[moe](C)[sp].[moe](G)[sp].[moe](G)}$$$$V2.0”, the target mRNA inhibition worked out at 5%.

The data set is the same for the next values; noted with them: ASO, HepG2, 0.0277778 µM.
“RNA1{[moe](A)[sp].[moe](A)[sp].[moe](G)[sp].[moe](C)[sp].d(G)[sp].d(A)[sp].d(A)[sp].d(G)[sp].d(T)[sp].d(G)[sp].d(C)[sp].d(A)[sp].d(C)[sp].[moe](A)[sp].[moe](C)[sp].[moe](G)[sp].[moe](G)}$$$$V2.0” registered a target mRNA inhibition of 27%.

The data set is the same for the next values; noted with them: ASO, HepG2, 0.07 µM.
For the substance “RNA1{[moe](A)[sp].[moe](A)[sp].[moe](G)[sp].[moe](A)[sp].d(T)[sp].d(G)[sp].d(A)[sp].d(G)[sp].d(G)[sp].d(C)[sp].d(A)[sp].d(T)[sp].d(A)[sp].[moe](G)[sp].[moe](C)[sp].[moe](A)[sp].[moe](G)}$$$$V2.0”, the target mRNA inhibition was 44% and 37%.

Consider “RNA1{[moe](A)[sp].[moe](A)[sp].[moe](G)[sp].[moe](C)[sp].d(G)[sp].d(A)[sp].d(A)[sp].d(G)[sp].d(T)[sp].d(G)[sp].d(C)[sp].d(A)[sp].d(C)[sp].[moe](A)[sp].[moe](C)[sp].[moe](G)[sp].[moe](G)}$$$$V2.0”, for which the target mRNA inhibition is 78% and 64%.

Regarding “RNA1{[moe](A)[sp].[moe](A)[sp].[moe](G)[sp].d(T)[sp].d(C)[sp].d(C)[sp].d(A)[sp].d(C)[sp].d(C)[sp].d(A)[sp].d(C)[sp].d(G)[sp].d(A)[sp].[cEt](G)[sp].[cEt](T)[sp].[cEt](C)}$$$$V2.0”, the target mRNA inhibition is 19% and 25%.

“RNA1{[moe](A)[sp].[moe](A)[sp].[moe](T)[sp].[moe](T)[sp].[moe](T)[sp].[moe](A)[sp].d(T)[sp].d(G)[sp].d(C)[sp].d(C)[sp].d(T)[sp].d(A)[sp].d(C)[sp].d(A)[sp].d(G)[sp].[moe](C)[sp].[moe](C)}$$$$V2.0”: the target mRNA inhibition is 53% and 48%.

In the case of “RNA1{[moe](A)[sp].[moe](A)[sp].[moe](T)[sp].[moe](T)[sp].[moe](T)[sp].d(A)[sp].d(T)[sp].d(G)[sp].d(C)[sp].d(C)[sp].d(T)[sp].d(A)[sp].d(C)[sp].d(A)[sp].[moe](G)[sp].[moe](C)[sp].[moe](C)}$$$$V2.0”, the target mRNA inhibition is 63% and 50%.

As to “RNA1{[moe](A)[sp].[moe](A)[sp].d(C)[sp].d(C)[sp].d(A)[sp].d(C)[sp].d(T)[sp].d(G)[sp].d(A)[sp].d(A)[sp].d(C)[sp].[moe](A)[sp].[moe](A)[sp].[moe](A)[sp].[moe](T)[sp].[moe](G)}$$$$V2.0”, the target mRNA inhibition was 15% and 0%.

For the substance “RNA1{[moe](A)[sp].[moe](A)[sp].d(C)[sp].d(T)[sp].d(G)[sp].d(G)[sp].d(A)[sp].d(G)[sp].d(C)[sp].d(C)[sp].d(A)[sp].[moe](C)[sp].[moe](C)[sp].[moe](A)[sp].[moe](G)[sp].[moe](C)}$$$$V2.0”, the target mRNA inhibition is 48% and 43%.

For the substance “RNA1{[moe](A)[sp].[moe](A)[sp].d(G)[sp].d(C)[sp].d(G)[sp].d(A)[sp].d(A)[sp].d(G)[sp].d(T)[sp].d(G)[sp].d(C)[sp].[moe](A)[sp].[moe](C)[sp].[moe](A)[sp].[moe](C)[sp].[moe](G)}$$$$V2.0”, the target mRNA inhibition is 70% and 68%.

Consider “RNA1{[moe](A)[sp].[moe](C)[sp].[moe](C)[sp].[moe](A)[sp].[moe](C)[sp].[moe](T)[sp].d(G)[sp].d(A)[sp].d(A)[sp].d(C)[sp].d(A)[sp].d(A)[sp].d(A)[sp].d(T)[sp].d(G)[sp].[moe](G)[sp].[moe](C)}$$$$V2.0”, for which the target mRNA inhibition is 59% and 42%.

On to “RNA1{[moe](A)[sp].[moe](C)[sp].[moe](C)[sp].[moe](A)[sp].d(A)[sp].d(T)[sp].d(T)[sp].d(T)[sp].d(A)[sp].d(T)[sp].d(G)[sp].d(C)[sp].d(C)[sp].[moe](T)[sp].[moe](A)[sp].[moe](C)[sp].[moe](A)}$$$$V2.0”, for which the target mRNA inhibition is 39% and 38%.

Take “RNA1{[moe](A)[sp].[moe](C)[sp].[moe](C)[sp].d(A)[sp].d(A)[sp].d(T)[sp].d(T)[sp].d(T)[sp].d(A)[sp].d(T)[sp].d(G)[sp].d(C)[sp].[moe](C)[sp].[moe](T)[sp].[moe](A)[sp].[moe](C)[sp].[moe](A)}$$$$V2.0”: the target mRNA inhibition is 31% and 33%.

The substance “RNA1{[moe](A)[sp].[moe](C)[sp].[moe](C)[sp].d(A)[sp].d(C)[sp].d(T)[sp].d(G)[sp].d(A)[sp].d(A)[sp].d(C)[sp].d(A)[sp].d(A)[sp].[moe](A)[sp].[moe](T)[sp].[moe](G)[sp].[moe](G)[sp].[moe](C)}$$$$V2.0” came in with a target mRNA inhibition of 78%.

As for “RNA1{[moe](A)[sp].[moe](C)[sp].[moe](C)[sp].d(A)[sp].d(C)[sp].d(T)[sp].d(G)[sp].d(A)[sp].d(A)[sp].d(C)[sp].d(A)[sp].d(A)[sp].[moe](A)[sp].[moe](T)[sp].[moe](G)[sp].[moe](G)}$$$$V2.0”, the target mRNA inhibition is 0% and 3%.

Regarding “RNA1{[moe](A)[sp].[moe](C)[sp].[moe](G)[sp].[moe](T)[sp].[moe](G)[sp].d(C)[sp].d(A)[sp].d(G)[sp].d(A)[sp].d(G)[sp].d(G)[sp].d(T)[sp].d(G)[sp].d(A)[sp].[moe](A)[sp].[moe](G)[sp].[moe](C)}$$$$V2.0”, the target mRNA inhibition was 73% and 52%.

With “RNA1{[moe](A)[sp].[moe](C)[sp].[moe](G)[sp].d(T)[sp].d(G)[sp].d(C)[sp].d(A)[sp].d(G)[sp].d(A)[sp].d(G)[sp].d(G)[sp].d(T)[sp].[moe](G)[sp].[moe](A)[sp].[moe](A)[sp].[moe](G)}$$$$V2.0”, the target mRNA inhibition is 51% and 35%.

In the case of “RNA1{[moe](A)[sp].[moe](C)[sp].[moe](T)[sp].[moe](A)[sp].[moe](G)[sp].d(T)[sp].d(A)[sp].d(A)[sp].d(A)[sp].d(C)[sp].d(T)[sp].d(G)[sp].d(A)[sp].d(G)[sp].[moe](C)[sp].[moe](C)[sp].[moe](A)}$$$$V2.0”, the target mRNA inhibition was 67% and 61%.

Take “RNA1{[moe](A)[sp].[moe](C)[sp].[moe](T)[sp].[moe](G)[sp].[moe](G)[sp].d(A)[sp].d(G)[sp].d(C)[sp].d(C)[sp].d(A)[sp].d(C)[sp].d(C)[sp].d(A)[sp].d(G)[sp].[moe](C)[sp].[moe](A)[sp].[moe](G)}$$$$V2.0”: the target mRNA inhibition is 46% and 39%.

As to “RNA1{[moe](A)[sp].[moe](C)[sp].[moe](T)[sp].[moe](G)[sp].[moe](G)[sp].d(A)[sp].d(G)[sp].d(C)[sp].d(C)[sp].d(A)[sp].d(C)[sp].d(C)[sp].d(A)[sp].d(G)[sp].[moe](C)[sp].[moe](A)}$$$$V2.0”, the target mRNA inhibition was 54% and 48%.

Turning to “RNA1{[moe](A)[sp].[moe](C)[sp].d(G)[sp].d(G)[sp].d(G)[sp].d(C)[sp].d(A)[sp].d(A)[sp].d(C)[sp].d(A)[sp].d(T)[sp].[moe](A)[sp].[moe](C)[sp].[moe](C)[sp].[moe](T)[sp].[moe](T)[sp].[moe](G)}$$$$V2.0”, the target mRNA inhibition came to 46%.

Turning to “RNA1{[moe](A)[sp].[moe](C)[sp].d(T)[sp].d(A)[sp].d(G)[sp].d(T)[sp].d(A)[sp].d(A)[sp].d(A)[sp].d(C)[sp].d(T)[sp].[moe](G)[sp].[moe](A)[sp].[moe](G)[sp].[moe](C)[sp].[moe](C)[sp].[moe](A)}$$$$V2.0”, the target mRNA inhibition is 61%.

Consider “RNA1{[moe](A)[sp].[moe](C)[sp].d(T)[sp].d(A)[sp].d(G)[sp].d(T)[sp].d(A)[sp].d(A)[sp].d(A)[sp].d(C)[sp].d(T)[sp].[moe](G)[sp].[moe](A)[sp].[moe](G)[sp].[moe](C)[sp].[moe](C)}$$$$V2.0”, for which the target mRNA inhibition was 57% and 47%.

For the substance “RNA1{[moe](A)[sp].[moe](C)[sp].d(T)[sp].d(G)[sp].d(G)[sp].d(A)[sp].d(G)[sp].d(C)[sp].d(C)[sp].d(A)[sp].d(C)[sp].[moe](C)[sp].[moe](A)[sp].[moe](G)[sp].[moe](C)[sp].[moe](A)[sp].[moe](G)}$$$$V2.0”, the target mRNA inhibition is 70% and 61%.

Consider “RNA1{[moe](A)[sp].[moe](G)[sp].[moe](A)[sp].[moe](A)[sp].[moe](G)[sp].[moe](T)[sp].d(C)[sp].d(C)[sp].d(A)[sp].d(C)[sp].d(C)[sp].d(A)[sp].d(C)[sp].d(G)[sp].d(A)[sp].[moe](G)[sp].[moe](T)}$$$$V2.0”, for which the target mRNA inhibition was 39% and 30%.

Turning to “RNA1{[moe](A)[sp].[moe](G)[sp].[moe](A)[sp].[moe](A)[sp].[moe](G)[sp].d(T)[sp].d(C)[sp].d(C)[sp].d(A)[sp].d(C)[sp].d(C)[sp].d(A)[sp].d(C)[sp].d(G)[sp].[moe](A)[sp].[moe](G)[sp].[moe](T)}$$$$V2.0”, the target mRNA inhibition is 11% and 0%.

Regarding “RNA1{[moe](A)[sp].[moe](G)[sp].[moe](A)[sp].[moe](A)[sp].d(G)[sp].d(T)[sp].d(C)[sp].d(C)[sp].d(A)[sp].d(C)[sp].d(C)[sp].d(A)[sp].d(C)[sp].[moe](G)[sp].[moe](A)[sp].[moe](G)[sp].[moe](T)}$$$$V2.0”, the target mRNA inhibition is 32% and 20%.

In the case of “RNA1{[moe](A)[sp].[moe](G)[sp].[moe](A)[sp].[moe](G)[sp].[moe](A)[sp].d(A)[sp].d(G)[sp].d(T)[sp].d(C)[sp].d(C)[sp].d(A)[sp].d(C)[sp].d(C)[sp].d(A)[sp].[moe](C)[sp].[moe](G)[sp].[moe](A)}$$$$V2.0”, the target mRNA inhibition was 28% and 27%.

With “RNA1{[moe](A)[sp].[moe](G)[sp].[moe](A)[sp].[moe](G)[sp].[moe](G)[sp].d(T)[sp].d(G)[sp].d(A)[sp].d(A)[sp].d(G)[sp].d(C)[sp].d(G)[sp].d(A)[sp].d(A)[sp].[moe](G)[sp].[moe](T)}$$$$V2.0”, the target mRNA inhibition was 55% and 52%.

In the case of “RNA1{[moe](A)[sp].[moe](G)[sp].[moe](A)[sp].[moe](T)[sp].[moe](G)[sp].d(A)[sp].d(G)[sp].d(G)[sp].d(C)[sp].d(A)[sp].d(T)[sp].d(A)[sp].d(G)[sp].d(C)[sp].[moe](A)[sp].[moe](G)[sp].[moe](C)}$$$$V2.0”, the target mRNA inhibition was 41% and 34%.

For “RNA1{[moe](A)[sp].[moe](G)[sp].[moe](A)[sp].d(G)[sp].d(G)[sp].d(T)[sp].d(G)[sp].d(A)[sp].d(A)[sp].d(G)[sp].d(C)[sp].d(G)[sp].[moe](A)[sp].[moe](A)[sp].[moe](G)[sp].[moe](T)}$$$$V2.0”, the target mRNA inhibition was 51% and 44%.

The same data set, now with this note: ASO, HepG2, 0.0833333 µM.
In turn, “RNA1{[moe](A)[sp].[moe](A)[sp].[moe](G)[sp].[moe](C)[sp].d(G)[sp].d(A)[sp].d(A)[sp].d(G)[sp].d(T)[sp].d(G)[sp].d(C)[sp].d(A)[sp].d(C)[sp].[moe](A)[sp].[moe](C)[sp].[moe](G)[sp].[moe](G)}$$$$V2.0” gave a target mRNA inhibition of 69%.

The data set is the same for the next values; noted with them: ASO, HepG2, 0.25 µM.
In turn, “RNA1{[moe](A)[sp].[moe](A)[sp].[moe](G)[sp].[moe](C)[sp].d(G)[sp].d(A)[sp].d(A)[sp].d(G)[sp].d(T)[sp].d(G)[sp].d(C)[sp].d(A)[sp].d(C)[sp].[moe](A)[sp].[moe](C)[sp].[moe](G)[sp].[moe](G)}$$$$V2.0” gave a target mRNA inhibition of 81%.
